Results on 20 compounds are retold here after patent US20220033407A1, “N-(pyridin-2-ylsulfonyl)cyclopropanecarboxamide Derivatives and their Use in the Treatment of Disease” (NOVARTIS AG, priority 2018, published 2022).

The target in the assay is T1, delF508-CFTR-HRP (Homo sapiens, UniProt P13569, DEL508-508).
T1 construct: expressed in transfected cells
Kind of assay: Measurement of delF508-CFTR-HRP surface expression in CFBE41o- cells (HRP luminescence).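 As to DelF508-CFTR-HRP Amax %: percent efficacy relative to a reference CFTR corrector compound.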 The assay is classed as cell-based. Particulars: for Emax: CFBE41o-, read-out: DelF508-CFTR-HRP Amax %; for EC50: mean of at least two replicates. The text has this: Measurement of delF508-CFTR-HRP Surface Expression in CFBE41o-Cells
This assay quantifies the cell surface expressions of the mutant CFTR channel using an extracellular HRP tag.
A cellular assay was developed to measure surface expression of horseradish peroxidase (HRP) tagged delF508-CFTR in the human bronchial epithelial immortalized CFBE41o-cell line (Phuan, P. W., et al, (2014) Molecular Pharmacology 86:42-51). Specifically, the HRP sequence was inserted into the fourth extracellular loop of delF508-CFTR and stably expressed in CFBE41o-cells. Cells were seeded in 384 well plate at a density of 5000 cells/well and incubated at 37° C. for 12 to 24 hours in medium (Gibco MEM #11095, 10% FBS, 10 mM HEPES, […], 200 μg/mL G418, 3 μg/mL Puromycin). The delF508-CFTR-HRP expression was induced with 500 ng/mL doxycycline (Sigma D-9891, dissolved in H2O and sterile filtered) in medium and the cells were incubated at 37° C. for 48 h. Old medium was removed and fresh medium was added containing 500 ng/mL doxycycline and unknown test compound at required test concentration in DMSO, not exceeding 0.5% final DMSO concentration. The highest concentration tested was 10 μM with a 10-point concentration response curve using a 3-fold dilution. After addition of compounds, the cells were incubated for 24 h at 37° C. On the final day, cells were washed four times in PBS containing 1 mM MgCl2 and 0.1 mM CaCl2. HRP-Substrate (SuperSignal ELISA Pico, Fisher #37069) 20 μl/well was added and the luminescence signal was determined (Viewlux, Perkin Elmer). Light was emitted upon addition of exogenous HRP-Substrate only when delF508-CFTR-HRP reached the cell surface and the HRP tag was accessible to the HRP-Substrate (note: HRP-Substrate cannot cross the lipid bilayer to reach delF508-CFTR-HRP misfolded within the cell).
The median activity for the lowest concentration of the compounds on each assay plate was calculated and this value was used to normalize the signal for each well on the respective plate. Three replicates at each concentrations for every compound were run to determine one EC50. The median value was determined and used to calculate compound activities as described below. Effective half maximal values (EC50) were calculated for each compound by performing logistic regression on measured dose-response data points using the equation: […]
where “Y” is the observed activity, “Bottom” is the lowest observed value, “Top” is the highest observed value, and the “Hill coefficient” gives the largest absolute value of the slope. The curve fitting is carried out by a curve fitting program implemented at GNF using Matlab (Mathworks). The dose response curves also were used to calculate Fold Change (FC) using the equation: […]
Compound efficacy relative to the reference compound 3-(6-(1-(2,2-difluorobenzo[d][1,3]dioxol-5-yl)cyclopropane-1-carboxamido)-3-methylpyridin-2-yl)benzoic acid was determined using the following formula: […]

T1 sequence (P13569 with tags, fused parts or gaps DEL508-508): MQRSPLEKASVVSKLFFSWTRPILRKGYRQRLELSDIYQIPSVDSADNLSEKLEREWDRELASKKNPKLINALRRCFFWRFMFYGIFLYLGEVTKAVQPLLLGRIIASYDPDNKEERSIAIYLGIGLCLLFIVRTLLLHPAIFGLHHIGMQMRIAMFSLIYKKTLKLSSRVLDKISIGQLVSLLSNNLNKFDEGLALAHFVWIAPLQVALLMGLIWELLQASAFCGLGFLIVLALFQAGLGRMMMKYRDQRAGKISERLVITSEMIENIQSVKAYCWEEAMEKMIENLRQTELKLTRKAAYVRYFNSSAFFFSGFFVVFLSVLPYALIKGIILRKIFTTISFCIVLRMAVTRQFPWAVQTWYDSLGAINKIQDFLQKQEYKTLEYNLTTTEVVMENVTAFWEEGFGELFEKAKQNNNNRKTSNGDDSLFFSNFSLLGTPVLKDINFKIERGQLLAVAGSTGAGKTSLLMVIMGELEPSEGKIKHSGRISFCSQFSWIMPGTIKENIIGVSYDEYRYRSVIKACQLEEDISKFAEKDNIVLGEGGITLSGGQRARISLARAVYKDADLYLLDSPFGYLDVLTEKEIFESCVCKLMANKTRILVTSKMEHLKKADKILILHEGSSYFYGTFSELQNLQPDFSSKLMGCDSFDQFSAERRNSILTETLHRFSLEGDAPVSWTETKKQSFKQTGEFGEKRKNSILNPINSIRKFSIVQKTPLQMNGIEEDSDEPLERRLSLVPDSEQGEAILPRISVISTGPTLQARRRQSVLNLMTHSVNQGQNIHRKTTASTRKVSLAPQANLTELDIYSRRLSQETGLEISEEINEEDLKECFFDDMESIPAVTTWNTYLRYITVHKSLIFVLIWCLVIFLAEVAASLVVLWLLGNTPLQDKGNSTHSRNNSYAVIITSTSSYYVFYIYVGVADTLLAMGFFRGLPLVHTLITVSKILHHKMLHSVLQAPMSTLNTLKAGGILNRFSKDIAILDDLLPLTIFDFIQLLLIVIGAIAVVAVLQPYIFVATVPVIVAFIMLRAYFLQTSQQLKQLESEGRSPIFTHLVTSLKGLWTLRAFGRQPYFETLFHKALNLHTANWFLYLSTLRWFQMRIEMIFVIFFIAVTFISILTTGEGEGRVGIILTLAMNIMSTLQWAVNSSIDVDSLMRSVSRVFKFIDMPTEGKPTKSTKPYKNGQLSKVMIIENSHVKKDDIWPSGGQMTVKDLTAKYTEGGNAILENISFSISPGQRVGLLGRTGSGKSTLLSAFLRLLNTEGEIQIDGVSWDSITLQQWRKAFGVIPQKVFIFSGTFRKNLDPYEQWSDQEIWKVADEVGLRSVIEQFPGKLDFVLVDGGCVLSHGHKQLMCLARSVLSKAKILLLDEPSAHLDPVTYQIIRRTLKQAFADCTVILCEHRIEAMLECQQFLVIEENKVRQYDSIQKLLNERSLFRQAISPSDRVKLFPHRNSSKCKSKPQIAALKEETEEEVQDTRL

What is called EC50 is the concentration that produces a half-maximal response. The low end stands for greater potency, the high end for weaker potency. Take `Cc1ccc(OC2CCC(C(C)(C)C)CC2)c(OC2(C(=O)NS(=O)(=O)c3cccc(N4CC[C@H](O)C4)n3)CC2)c1` (stereo partly drawn) [Example 6-4, (S)-1-(2-((4-(tert-butyl)cyclohexyl)oxy)-5-methylphenoxy)-N-((6-(3-hydroxypyrrolidin-1-yl)pyridin-2-yl)sulfonyl)cyclopropanecarboxamide]: the Emax is 526% and the EC50 worked out at 330 nM.

With `CC1(C)CCN(c2ccc(Cl)cc2OC2(C(=O)NS(=O)(=O)c3cccc(N4CC5CCC(C4)O5)n3)CC2)CC1` [Example 9-40, N-((6-(8-Oxa-3-azabicyclo[3.2.1]octan-3-yl)pyridin-2-yl)sulfonyl)-1-(5-chloro-2-(4,4-dimethylpiperidin-1-yl)phenoxy)cyclopropane-1-carboxamide], the Emax stood at 693% and the EC50 was 1510 nM.

As to `O=C(NS(=O)(=O)c1cccc(N2CC[C@H](O)C2)n1)C1(Oc2cc(Cl)ccc2-c2ccc3c(c2)OC(F)(F)O3)CC1` [Example 5-15, (S)-1-(5-Chloro-2-(2,2-difluorobenzo[d][1,3]dioxol-5-yl)phenoxy)-N-((6-(3-hydroxypyrrolidin-1-yl)pyridin-2-yl)sulfonyl)cyclopropane-1-carboxamide], the Emax is 361% and the EC50 came to 2540 nM.

Take `CC(C)(C)C1(O)CCN(c2cccc(S(=O)(=O)NC(=O)C3(Oc4cc(Cl)ccc4C4CC5(CCC5)C4)CC3)n2)CC1` [Example 7-4, N-((6-(4-(tert-butyl)-4-hydroxypiperidin-1-yl)pyridin-2-yl)sulfonyl)-1-(5-chloro-2-(spiro[3.3]heptan-2-yl)phenoxy)cyclopropanecarboxamide]: the Emax came out at 840% and the half-maximal effective concentration (EC50) worked out at 440 nM.

As for `O=C(NS(=O)(=O)c1cccc(N2CC[C@@H](O)C2)n1)C1(Oc2cc(Cl)ccc2N2CC3(CCCCC3)C2)CC1` [Example 9-6, (R)-1-(5-Chloro-2-(2-azaspiro[3.5]nonan-2-yl)phenoxy)-N-((6-(3-hydroxypyrrolidin-1-yl)pyridin-2-yl)sulfonyl)cyclopropanecarboxamide], the Emax amounted to 388% and the response was half-maximal at 910 nM (EC50).

On to `CC1(C)CCCN(c2ccc(Cl)cc2OC2(C(=O)NS(=O)(=O)c3cccc(N4CC[C@H](O)C4)n3)CC2)C1` [Example 9-4, (S)-1-(5-chloro-2-(3,3-dimethylpiperidin-1-yl)phenoxy)-N-((6-(3-hydroxypyrrolidin-1-yl)pyridin-2-yl)sulfonyl)cyclopropanecarboxamide], for which the Emax is 835% and a half-maximal effect (EC50) was put at 750 nM.

`CC1(C)CCN(c2ccc(Cl)cc2OC2(C(=O)NS(=O)(=O)c3cccc(N4CCCC(C)(O)C4)n3)CC2)CC1` (single isomer, unassigned) [Example 9-43-2, 1-(5-Chloro-2-(4,4-dimethylpiperidin-1-yl)phenoxy)-N-((6-(3-hydroxy-3-methylpiperidin-1-yl)pyridin-2-yl)sulfonyl)cyclopropane-1-carboxamide]: the “DelF508-CFTR-HRP Amax %” value is 367.4% and the EC50 was found to be 1920 nM.

`Cc1ccc(OC2CCCCC2)c(OC2(C(=O)NS(=O)(=O)c3cccc(N4CC[C@H](O)C4)n3)CC2)c1` [Example 6-3, (S)-1-(2-(Cyclohexyloxy)-5-methylphenoxy)-N-((6-(3-hydroxypyrrolidin-1-yl)pyridin-2-yl)sulfonyl)cyclopropane-1-carboxamide]: the Emax was 507% and a half-maximal response (EC50) required 2780 nM.

With `CC1(C)CCN(c2ccc(Cl)cc2OC2(C(=O)NS(=O)(=O)c3cccc(N4CCC(O)(C(F)(F)F)CC4)n3)CC2)CC1` [Example 10-9, 1-(5-chloro-2-(4,4-dimethylpiperidin-1-yl)phenoxy)-N-((6-(4-hydroxy-4-(trifluoromethyl)piperidin-1-yl)pyridin-2-yl)sulfonyl)cyclopropanecarboxamide], the Emax worked out at 268% and a half-maximal response (EC50) required 460 nM.

As to `CC1(C)CCCN(c2ccc(Cl)cc2OC2(C(=O)NS(=O)(=O)c3cccc(N4CCC(O)(C(F)(F)F)CC4)n3)CC2)C1` [Example 10-7, 1-(5-chloro-2-(3,3-dimethylpiperidin-1-yl)phenoxy)-N-((6-(4-hydroxy-4-(trifluoromethyl)piperidin-1-yl)pyridin-2-yl)sulfonyl)cyclopropanecarboxamide], the Emax was 604% and the concentration giving a half-maximal response (EC50) is 160 nM.

Take `Cc1ccc(C2CCC(C)(C)OC2)c(OC2(C(=O)NS(=O)(=O)c3cccc(N4CC[C@H](O)C4)n3)CC2)c1` (single isomer, unassigned) [Example 4-24-2]: the “DelF508-CFTR-HRP Amax %” value worked out at 249% and the concentration giving a half-maximal response (EC50) was 3000 nM.

Turning to `O=C(NS(=O)(=O)c1cccc(N2CC[C@H](O)C2)n1)C1(Oc2cc(Cl)ccc2C2CC3(CCC3)C2)CCCC1` [Example 7-20, (S)-1-(5-Chloro-2-(spiro[3.3]heptan-2-yl)phenoxy)-N-((6-(3-hydroxypyrrolidin-1-yl)pyridin-2-yl)sulfonyl)cyclopentane-1-carboxamide], the Emax was 280% and the 50% effective concentration (EC50) was found to be 540 nM.

For `Cc1cnc(N2CCC(C)(C)CC2)c(OC2(C(=O)NS(=O)(=O)c3cccc(N4CC[C@H](O)C4)n3)CC2)c1` [Example 10-11, (S)-1-((2-(4,4-dimethylpiperidin-1-yl)-5-methylpyridin-3-yl)oxy)-N-((6-(3-hydroxypyrrolidin-1-yl)pyridin-2-yl)sulfonyl)cyclopropanecarboxamide], the Emax came to 181% and a half-maximal response (EC50) required 2950 nM.

On to `O=C(NS(=O)(=O)c1cccc(N2CC[C@H](O)C2)n1)C1(Oc2cc(Cl)ccc2-c2cccc(OC(F)(F)F)c2)CC1` [Example 5-6, (S)-1-((4-Chloro-3′-(trifluoromethoxy)-[1,1′-biphenyl]-2-yl)oxy)-N-((6-(3-hydroxypyrrolidin-1-yl)pyridin-2-yl)sulfonyl)cyclopropane-1-carboxamide], for which the Emax is 280% and the concentration for a half-maximal effect (EC50) was determined as 1770 nM.

`COCCN(C)c1cccc(S(=O)(=O)NC(=O)C2(Oc3cc(Cl)ccc3N3CCC(C)(C)CC3)CC2)n1` [Example 10-5, 1-(5-chloro-2-(4,4-dimethylpiperidin-1-yl)phenoxy)-N-((6-((2-methoxyethyl)(methyl)amino)pyridin-2-yl)sulfonyl)cyclopropanecarboxamide]: the Emax came to 475% and the EC50 stood at 1020 nM.

As to `O=C(NS(=O)(=O)c1cccc(N2CC[C@@H](O)C2)n1)C1(Oc2cc(Cl)ccc2C2CC3(CCC3)C2)CC1` [Example 7-19, (R)-1-(5-Chloro-2-(spiro[3.3]heptan-2-yl)phenoxy)-N-((6-(3-hydroxypyrrolidin-1-yl)pyridin-2-yl)sulfonyl)cyclopropane-1-carboxamide], the Emax came out at 350% and the EC50 is 1050 nM.

Take `O=C(NS(=O)(=O)c1cccc(N2CC[C@H](O)C2)n1)C1(Oc2cc(Cl)ccc2OC2CCCC2)CC1` [Example 6-14, (S)-1-(5-chloro-2-(cyclopentyloxy)phenoxy)-N-((6-(3-hydroxypyrrolidin-1-yl)pyridin-2-yl)sulfonyl)cyclopropanecarboxamide]: the Emax came to 276% and a half-maximal response (EC50) required 3240 nM.

With `CC(C)COc1cccc(-c2ccc(Cl)cc2OC2(C(=O)NS(=O)(=O)c3cccc(N4CCC(C)(C#N)CC4)n3)CC2)c1` [Example 5-3, 1-((4-Chloro-3′-isobutoxy-[1,1′-biphenyl]-2-yl)oxy)-N-((6-(4-cyano-4-methylpiperidin-1-yl)pyridin-2-yl)sulfonyl)cyclopropane-1-carboxamide], the Emax was 286% and the response was half-maximal at 750 nM (EC50).

`Cc1ccc(C2CCCCC2)c(OC2(C(=O)NS(=O)(=O)c3cccc(N4CCC(NC(=O)OC(C)(C)C)CC4)n3)CC2)c1` [Example 2-43, Tert-butyl (1-(6-(N-(1-(2-cyclohexyl-5-methylphenoxy)cyclopropanecarbonyl)sulfamoyl)pyridin-2-yl)piperidin-4-yl)carbamate]: the Emax was determined as 556% and a half-maximal effect (EC50) was put at 1120 nM.

For the compound `CC1CC(C)CN(c2ccc(Cl)cc2OC2(C(=O)NS(=O)(=O)c3cccc(N4CC[C@H](O)C4)n3)CC2)C1` (stereo partly drawn) [Example 9-17, 1-(5-Chloro-2-(3,5-dimethylpiperidin-1-yl)phenoxy)-N-((6-((S)-3-hydroxypyrrolidin-1-yl)pyridin-2-yl)sulfonyl)cyclopropanecarboxamide], the Emax is 176% and a half-maximal effect (EC50) was put at 1290 nM.
